# Assay results taken from article PMC12406256, “Food Additives Inhibit Intestinal Drug Transporters but Have Limited Effect on In Vitro Drug Permeability” (Molecular Pharmaceutics, 2025).
# Legend:
# BCRP = target: T1, BCRP (Homo sapiens, UniProt Q9UNQ0); experiment: Vesicular transport assay, BCRP (Lucifer yellow substrate); type: biochemical; design: made in house; host or cells: Spodoptera frugiperda Sf9 cells, crude membrane vesicles
# T1 sequence (Q9UNQ0 1-655): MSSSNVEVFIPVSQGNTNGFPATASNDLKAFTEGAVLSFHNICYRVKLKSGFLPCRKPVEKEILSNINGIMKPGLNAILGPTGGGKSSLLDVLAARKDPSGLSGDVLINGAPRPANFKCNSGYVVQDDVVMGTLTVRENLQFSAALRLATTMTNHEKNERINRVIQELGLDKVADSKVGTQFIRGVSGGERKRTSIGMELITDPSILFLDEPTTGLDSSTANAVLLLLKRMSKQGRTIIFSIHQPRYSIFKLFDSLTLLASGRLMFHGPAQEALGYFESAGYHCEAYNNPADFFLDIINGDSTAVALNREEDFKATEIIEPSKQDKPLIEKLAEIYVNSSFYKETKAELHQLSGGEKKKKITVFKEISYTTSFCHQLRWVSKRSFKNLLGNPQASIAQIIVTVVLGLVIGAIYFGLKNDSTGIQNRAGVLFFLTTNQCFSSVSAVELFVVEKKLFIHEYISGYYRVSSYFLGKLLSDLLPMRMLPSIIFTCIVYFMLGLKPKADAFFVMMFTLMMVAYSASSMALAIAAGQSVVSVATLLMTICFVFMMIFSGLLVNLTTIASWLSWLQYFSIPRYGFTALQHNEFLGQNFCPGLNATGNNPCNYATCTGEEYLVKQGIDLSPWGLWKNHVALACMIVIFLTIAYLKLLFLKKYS
# Method: (§1) Transport inhibition by 22 food additives was tested with Spodoptera frugiperda (Sf9) derived crude membrane vesicles expressing BCRP, MRP2, or P-gp produced in-house. […] Vesicles (50 μg total protein/well) were diluted in an assay buffer (40 mM MOPS–Tris pH 7.0, 60 mM KCl, and 6 mM MgCl2) with the substrate, and food additives (final concentration of 50 μM) in DMSO were added to the mixture. After preincubation, either the assay buffer or Mg-ATP solution (final concentration 4 mM) was added to the plate to start the reaction. The plate was incubated at 37 °C, and the reaction was stopped with an ice-cold washing mixture (40 mM MOPS-Tris pH 7.0 and 70 mM KCl). Samples were moved to a MultiScreenHTS-FB Plate Glass fiber 1.0 μm/0.65 μm Durapore filter plate (Millipore, USA), and the wells were washed five times with the ice-cold washing mixture. For BCRP and MRP2, the fluorescent substrate was eluted from the filters with 100 μL 0.1 M NaOH. For LY samples, an equal volume of 0.1 M HCl was added to neutralize the samples before fluorescence measurement. The amount of the substrate accumulated into the vesicles was measured by fluorescent detection using a Varioskan LUX microplate reader (Thermo Fisher Scientific, Finland) (Table ). The accumulation into the P-gp vesicles was measured with high-performance liquid chromatography (HPLC) (Agilent 110 series, Agilent Technologies, USA) after lysis and elution of the vesicle contents with 100 μL 3:1 methanol/water + 0.1% formic acid. The column used was a Poroshell 120 EC-C18 with a size of 4.6 × 100 mm and 2.7 μm particle size. Eluent A was 0.1% formic acid, and eluent B was acetonitrile. The flow rate of eluent was 1 mL/min, and the injection volume of samples was 10 μL. […] The retention time for NMQ was around 2.5 min.
# (§2) For the efflux transporters, the relative transport was calculated as relativetransport(%ofcontrol)=transportinh,ATP−transportinh,noATP/transportDMSO,ATP−transportDMSO,noATP×100% where transportinh,ATP and transportinh,no ATP are the transport rates in the presence of food additives with or without ATP, respectively, and transportDMSO,ATP and transportDMSO,no ATP are the corresponding transport rates in the presence of the vehicle (DMSO) with or without ATP.
# (§3) The half-maximal inhibitory concentrations (IC50) were calculated with GraphPad Prism version 9.0.2 (GraphPad Software, San Diego, CA) using nonlinear regression that fits the data to a four-parameter dose–response curve: relativetransport=minimum+maximum−minimum/1+([I]/IC50)^h where minimum and maximum describe the plateaus of minimal and maximal relative transport (%), [I] is the concentration of inhibitor, and h is the Hill slope, which describes the steepness of the slope.
# P-gp [1] = target: T2, P-gp (Homo sapiens, UniProt P08183); design: made in house; host or cells: Spodoptera frugiperda Sf9 cells, crude membrane vesicles; conditions: Caco-2 cells; ref previous studies; cited from earlier work
# P-gp [2] = target: T2, P-gp; experiment: Vesicular transport assay, P-gp (N-methyl-quinidine substrate)
# Method: as §1, §2, §3
# Caco-2 cells = experiment: in vitro; conditions: Caco-2
# T2 sequence (P08183 whole entry): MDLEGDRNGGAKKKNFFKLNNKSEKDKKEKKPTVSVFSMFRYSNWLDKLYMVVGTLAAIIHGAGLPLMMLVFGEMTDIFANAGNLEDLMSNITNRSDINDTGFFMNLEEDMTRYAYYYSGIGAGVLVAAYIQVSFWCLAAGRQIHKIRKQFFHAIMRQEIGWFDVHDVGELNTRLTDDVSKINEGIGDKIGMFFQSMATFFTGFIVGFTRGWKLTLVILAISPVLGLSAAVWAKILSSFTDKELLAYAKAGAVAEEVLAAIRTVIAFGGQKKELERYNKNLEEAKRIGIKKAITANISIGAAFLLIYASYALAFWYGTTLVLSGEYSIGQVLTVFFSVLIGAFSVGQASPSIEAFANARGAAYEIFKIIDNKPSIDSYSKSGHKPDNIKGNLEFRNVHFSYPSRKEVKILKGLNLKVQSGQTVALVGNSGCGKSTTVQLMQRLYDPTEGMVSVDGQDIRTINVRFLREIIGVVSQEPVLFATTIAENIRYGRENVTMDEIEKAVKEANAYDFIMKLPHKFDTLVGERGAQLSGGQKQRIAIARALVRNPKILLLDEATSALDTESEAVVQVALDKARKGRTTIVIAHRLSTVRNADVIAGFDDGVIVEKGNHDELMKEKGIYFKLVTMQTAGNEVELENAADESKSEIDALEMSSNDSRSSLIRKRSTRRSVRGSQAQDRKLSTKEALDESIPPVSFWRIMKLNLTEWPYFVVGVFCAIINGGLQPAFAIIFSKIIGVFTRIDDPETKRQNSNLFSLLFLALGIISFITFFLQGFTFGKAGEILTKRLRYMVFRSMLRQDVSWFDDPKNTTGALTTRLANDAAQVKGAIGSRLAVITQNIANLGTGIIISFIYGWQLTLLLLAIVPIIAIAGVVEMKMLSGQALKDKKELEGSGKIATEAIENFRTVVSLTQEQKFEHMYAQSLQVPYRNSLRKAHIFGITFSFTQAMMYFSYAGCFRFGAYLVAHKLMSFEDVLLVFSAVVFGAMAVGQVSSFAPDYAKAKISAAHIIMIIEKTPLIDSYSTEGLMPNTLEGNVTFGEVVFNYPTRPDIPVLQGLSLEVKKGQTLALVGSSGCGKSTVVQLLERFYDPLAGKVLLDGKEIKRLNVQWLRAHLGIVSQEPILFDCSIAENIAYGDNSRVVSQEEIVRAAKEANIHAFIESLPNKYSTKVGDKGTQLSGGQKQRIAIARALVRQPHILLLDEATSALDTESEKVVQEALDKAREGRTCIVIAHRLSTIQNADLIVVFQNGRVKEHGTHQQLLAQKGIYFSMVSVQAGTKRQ
smiles,measurement,setting,value
CC1=C(/C=C/C(C)=C/C=C/C(C)=C/C=C/C=C(C)/C=C/C=C(C)/C=C/C2=C(C)CCCC2(C)C)C(C)(C)CCC1 [beta-carotene],IC50,"BCRP; Lucifer yellow 50 μM, membrane vesicles, n = 3, read-out: IC50 (95% CI), BCRP",12.1 µM
same,inhibition at 50 μM,"BCRP; Sf9-derived crude membrane vesicles expressing BCRP, pH 7, probe Lucifer yellow 50 μM, food additive 50 μM, n = 1, read-out: inhibition of BCRP substrate accumulation",≥ 50%
same,P-gp inhibition in Caco-2 cells,P-gp [1],inhibitor of P-gp
same,IC50,P-gp [2],3.2 µM
same,inhibition at 50 μM,"P-gp [2]; Sf9-derived crude membrane vesicles expressing P-gp, pH 7, probe N-methyl-quinidine 2 μM",≥ 50%
same,effect on sulfasalazine permeability (P app),Caco-2 cells,None of the selected food additives showed any effect
